Measurements from paper PMC11779861 (Scientific Reports, 2025).
Like-named read-outs stand apart in the source and are kept apart here.

Key:
hiPSC-CM cell monolayer = experiment: Cell health index: cardiomyocyte cell monolayer assessment; assay type: cell-based, human
[1] = tested on: Human Induced Pluripotent Stem Cell (hiPSC)-Derived Cardiomyocytes
[2] = tested on: ARPE-19 human retinal cells; experiment: MTS cell growth assay; assay type: cell-based; details: read-out: IC50 (cell growth)
hiPSC-CMs = experiment: Extracellular lactate dehydrogenase; assay type: cell-based, human; details: 48-hour treatment
[3] = cited from earlier work

## COc1cccc2c1C(=O)c1c(O)c3c(c(O)c1C2=O)C[C@@](O)(C(=O)CO)C[C@@H]3O[C@H]1C[C@H](N)[C@H](O)[C@H](C)O1 [Doxorubicin]
hiPSC-CM cell monolayer
  effect on the cell monolayer (in words): greater monolayer damage at both 24 and 48 h
[1]; 0.3 µM, 30 min
  electrical quiescence: 1/8
[1]; 24 h
  cardiomyocyte function / cardio-toxicity (in words): largely had no effect on electrophysiology

## C=CCNC1=C2C[C@@H](C)C[C@H](OC)[C@H](O)[C@@H](C)/C=C(\C)[C@H](OC(N)=O)[C@@H](OC)/C=C\C=C(/C)C(=O)NC(=CC1=O)C2=O [17-AAG]
[2]; ARPE-19, 48 hr, MTS, Avg ± SD, N = 3 biological replicates
  IC50: 20 nM
[1]; 0.25 µM, 48 h
  quiescence: 1/8
[1]; 2.5 µM, 24 h
  quiescence: 1/8
[1]; 2.5 µM, 48 h
  quiescence: 6/8
[1]; 10 µM, 24 h
  quiescence: 8/8
[1]; 10 µM, 48 h
  quiescence: 8/8
[1]; 50 µM, 24 h
  quiescence: 8/8
[1]; 50 µM, 48 h
  quiescence: 8/8
[1]; 24 h
  cardiomyocyte function / cardio-toxicity (in words): severe dysregulation of cardiomyocyte function
hiPSC-CMs
  extracellular LDH (in words): highly dose-dependently toxic

## CCc1cc(C(N)=O)ccc1-n1nc(C(C)C)c2c(-n3cnc(-c4cnn(C)c4)c3)ccnc21 [TAS-116]
[3]
  ocular toxicities in vivo: avoid any ocular toxicities in vivo
[2]; Homo sapiens, ARPE-19, 48 h
  IC50: 444 nM

## CCNC(=O)c1noc(-c2cc(C(C)C)c(O)cc2O)c1-c1ccc(CN2CCOCC2)cc1 [NVP AUY922]
[2]; Homo sapiens, ARPE-19, 48 h
  IC50: < 10 nM
